{"source": "patent US20140370105A1", "about": "“TREATMENT OF INFLAMMATORY BOWEL DISEASE WITH 6-MERCAPTOPURINE” (Teva Pharmaceutical Industries, Ltd., priority 2008, published 2014)", "origin": "cited, not measured here", "test_system": "inflammatory bowel disease", "conditions": "conventional therapy", "data": [{"smiles": "Sc1ncnc2nc[nH]c12", "note": "[6-MP, 6-mercaptopurine]", "values": [{"measurement": "time required to be effective / show effect", "setting": "IBD / Crohn's disease patients", "value": "3-4 months"}, {"measurement": "time required to show any benefit", "setting": "IBD patients", "value": "at least 12 weeks"}]}]}
